According to US20240246977A1, “DEGRADATION OF BRUTON'S TYROSINE KINASE (BTK) BY CONJUGATION OF BTK INHIBITORS WITH E3 LIGASE LIGAND AND METHOD OF USE” (BeiGene Switzerland GmbH, priority 2021, published 2024):

Legend:
[1] = tested on: HEK-293 cells; assay: HEK-293 cytotoxicity detection (CellTiter-Glo); assay type: cell-based; settings: Homo sapiens, 72 h, 72 h incubation, CellTiter-Glo luminescence, read-out: HEK293
Description: HEK-293 cells were treated with compounds diluted in 0.2% DMSO, dilution was done according to the following protocol: (1) making 500× stock solution in DMSO from 5 mM by 4-fold dilution, total 8 doses were included; (2) making 2× solution in cell culture medium by transferring 0.5 ul 500× stock solution into 125 ul medium; (3) adding 50 ul of 2× solution to cells for incubation of 72 h.
25 μl of the CellTiter-Glo®Reagent [(Promega)—Cat No. G7572] was added to each well in the 96-well plate. The contents were mixed for 2 minutes on an orbital shaker to induce cell lysis. The plate was then allowed to incubate at room temperature for 10 minutes to stabilize luminescent signal. Luminescence was recorded on BMG PheraStar with luminescence protocol.
The inhibition percentage of the compound was calculated by the following equation: Inhibition percentage of Compound=100−100×(Signal-low control)/(High control-low control), wherein signal=each test compound group
High control=Cell group with added DMSO and without compound, indicating cells proliferation with no inhibition;
Imax is the maximum percentage of inhibition.
The IC50 value of a compound can be obtained by fitting the following equation
(§1) Wherein, X and Y are known values, and IC50, Hillslope, Top and Bottom are the parameters obtained by fitting with software. Y is the inhibition percentage (calculated from the equation), X is the concentration of the compound; IC50 is the concentration of the compound when the 50% inhibition is reached. The smaller the IC50 value is, the stronger the inhibitory ability of the compound is. Vice versa, the higher the IC50 value is, the weaker the ability the inhibitory ability of the compound is; Hillslope represents the slope of the fitted curve, generally around 1*; Bottom represents the minimum value of the curve obtained by data fitting, which is generally 0%±20%; Top represents the maximum value of the curve obtained by data fitting, which is generally 100%±20%. The experimental data were fitted by calculating and analyzing with Dotmatics data analysis software.

[2] = biological target: BTK (Homo sapiens, UniProt Q06187); assay: BTK cell degradation in TMD-8 cells, HTRF assay; assay type: cell-based; parameters: endogenous in cells; host or cells: TMD-8 cells; settings: 6 h treatment, IC50 (DC50) of BTK degradation
Chain of BTK (Q06187 whole entry): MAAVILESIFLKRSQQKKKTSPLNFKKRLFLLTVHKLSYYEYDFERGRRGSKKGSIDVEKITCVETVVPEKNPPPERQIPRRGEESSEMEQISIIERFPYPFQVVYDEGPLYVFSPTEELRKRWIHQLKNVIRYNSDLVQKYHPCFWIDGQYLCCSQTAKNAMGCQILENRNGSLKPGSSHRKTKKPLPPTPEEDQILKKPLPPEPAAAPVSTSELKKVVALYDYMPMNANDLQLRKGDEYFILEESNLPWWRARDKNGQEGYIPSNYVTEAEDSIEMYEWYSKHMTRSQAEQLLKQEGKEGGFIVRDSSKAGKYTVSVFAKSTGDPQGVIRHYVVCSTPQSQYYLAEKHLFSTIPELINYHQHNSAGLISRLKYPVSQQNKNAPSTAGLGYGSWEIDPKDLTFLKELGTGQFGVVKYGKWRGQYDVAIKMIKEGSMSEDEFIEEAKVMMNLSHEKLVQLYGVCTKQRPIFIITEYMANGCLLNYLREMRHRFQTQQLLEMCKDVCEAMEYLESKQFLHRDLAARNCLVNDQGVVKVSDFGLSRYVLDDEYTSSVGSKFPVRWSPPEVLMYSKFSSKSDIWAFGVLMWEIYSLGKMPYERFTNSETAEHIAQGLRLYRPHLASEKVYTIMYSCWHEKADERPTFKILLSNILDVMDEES
Description: TMD-8 cells were treated with compounds diluted in 0.2% DMSO, dilution was done according to the following protocol: (1) making 500× stock solution in DMSO from 1 mM by 6-fold dilution, total 8 doses were included; (2) making 2× solution in cell culture medium by transferring 0.5 μl 500× stock solution into 125 μl medium; (3) adding 15 μl of 2× solution to cells for incubation of 6 h.
After 6 h treatment, 10 μl 14×lysis buffer was added to each well; the plate was sealed and incubated for 30 min at room temperature on a plate shaker; Once the cells was lysed, 16 μL of cell lysate were transferred to a PE 384-well HTRF detection plate; 4 μL of pre-mixed HTRF antibodies were added to each well; the plate was covered with a plate sealer, and then spinned at 1000 rpm for 1 min, then incubated overnight at room temperature; the results were read on BMG PheraStar with HTRF protocol (337 nm-665 nm-620 nm).
The inhibition (degradation) percentage of the compound was calculated by the following equation: Inhibition percentage of Compound=100−100×(Signal-low control)/(High control-low control), wherein signal=each test compound group
High control=Cell group with added DMSO and without compound, indicating microplate readings without BTK degradation;
Dmax is the maximum percentage of inhibition (degradation).
The IC50 (DC50) value of a compound can be obtained by fitting the following equation
Y=Bottom+(TOP−Bottom)/(1+((IC50/X)^hillslope))
as §1, with “wherein,” for “Wherein,”

`COc1ccccc1C(=O)NCc1ccc(-c2nn3c(c2C(N)=O)Nc2ccc(N4CCN(CC5CCN(c6ccc(N7CCC(=O)NC7=O)cc6)CC5)CC4)cc2CC3)c(F)c1F` [Example C47, 2-(2,3-difluoro-4-((2-methoxybenzamido)methyl)phenyl)-7-(4-((1-(4-(2,4-dioxotetrahydropyrimidin-1(2H)-yl)phenyl)piperidin-4-yl)methyl)piperazin-1-yl)-9,10-dihydro-4H-benzo[d]pyrazolo[1,5-a] [1,3]diazepine-3-carboxamide] gave an IC50 [1] of 222 nM and a DC50 [2] of 4.64 nM.
With `NC(=O)c1c(-c2ccc(Oc3ccccc3)cc2)nn2c1Nc1ccc(C3CCN(CC4CCN(c5ccc(N6CCC(=O)NC6=O)cc5)CC4)CC3)cc1CC2` [Example A30, 7-(1-((1-(4-(2,4-dioxotetrahydropyrimidin-1(2H)-yl)phenyl)piperidin-4-yl)methyl)piperidin-4-yl)-2-(4-phenoxyphenyl)-9,10-dihydro-4H-benzo[d]pyrazolo[1,5-a][1,3]diazepine-3-carboxamide] the IC50 [1] was 28.7 nM and the DC50 [2] was 1.58 nM.
`Cc1cccc(NC(=O)c2ccc(-c3nn4c(c3C(N)=O)Nc3ccc(N5CCN(CC6CCN(c7ccc(N8CCC(=O)NC8=O)c(C)c7)CC6)CC5)cc3CC4)c(F)c2C)n1` [Example B54, 7-(4-((1-(4-(2,4-dioxotetrahydropyrimidin-1(2H)-yl)-3-methylphenyl)piperidin-4-yl)methyl)piperazin-1-yl)-2-(2-fluoro-3-methyl-4-((6-methylpyridin-2-yl)carbamoyl)phenyl)-9,10-dihydro-4H-benzo[d]pyrazolo[1,5-a][1,3]diazepine-3-carboxamide] showed an IC50 [1] of over 10000 nM and a DC50 [2] of 3.75 nM.
`Cc1cccc(NC(=O)c2ccc(-c3nn4c(c3C(N)=O)Nc3ccc(N5CCN(CC6CCN(c7cccc(CN8CCC(=O)NC8=O)c7)CC6)CC5)cc3CC4)c(F)c2C)n1` [Example B70, 7-(4-((1-(3-((2,4-dioxotetrahydropyrimidin-1(2H)-yl)methyl)phenyl)piperidin-4-yl)methyl)piperazin-1-yl)-2-(2-fluoro-3-methyl-4-((6-methylpyridin-2-yl)carbamoyl)phenyl)-9,10-dihydro-4H-benzo[d]pyrazolo[1,5-a][1,3]diazepine-3-carboxamide] gave a DC50 [2] of 8.66 nM.
In the case of `NC(=O)c1c(-c2ccc(Oc3ccccc3)cc2)nn2c1Nc1cc(N3CCN(CC4CCN(c5ccc6c(c5)C(=O)N(C5CCC(=O)NC5=O)C6=O)CC4)CC3)ccc1CC2` (stereo not shown) [Example A15, 6-(4-((1-(2-(2,6-dioxopiperidin-3-yl)-1,3-dioxoisoindolin-5-yl)piperidin-4-yl)methyl)piperazin-1-yl)-2-(4-phenoxyphenyl)-9,10-dihydro-4H-benzo[d]pyrazolo[1,5-a][1,3]diazepine-3-carboxamide], the DC50 [2] is reported as 27.9 nM.
Molecule `NC(=O)c1c(-c2ccc(Oc3ccccc3)cc2)nn2c1Nc1cc(C(=O)NC3CCN(CC4CCN(c5cc6c(cc5F)C(=O)N(C5CCC(=O)NC5=O)C6=O)CC4)CC3)ccc1CC2` (stereo not shown) [Example A17, N^6-(1-((1-(2-(2,6-dioxopiperidin-3-yl)-6-fluoro-1,3-dioxoisoindolin-5-yl)piperidin-4-yl)methyl)piperidin-4-yl)-2-(4-phenoxyphenyl)-9,10-dihydro-4H-benzo[d]pyrazolo[1,5-a][1,3]diazepine-3,6-dicarboxamide] has a DC50 [2] of 14.4 nM.
`NC(=O)c1c(-c2ccc(Oc3ccccc3)cc2)nn2c1Nc1cc(C(=O)N3CCN(CC4CCN(c5ccc6c(c5)C(=O)N(C5CCC(=O)NC5=O)C6=O)CC4)CC3)ccc1CC2` (stereo not shown) [Example A19, 6-(4-((1-(2-(2,6-dioxopiperidin-3-yl)-1,3-dioxoisoindolin-5-yl)piperidin-4-yl)methyl)piperazine-1-carbonyl)-2-(4-phenoxyphenyl)-9,10-dihydro-4H-benzo[d]pyrazolo[1,5-a][1,3]diazepine-3-carboxamide] showed a DC50 [2] of 17.9 nM.
With `Cc1cccc(NC(=O)c2ccc(-c3nn4c(c3C(N)=O)Nc3ccc(N5CCN(CC6CCN(c7ccc(CN8CCC(=O)NC8=O)cc7)CC6)CC5)cc3CC4)c(F)c2C)n1` [Example B69, 7-(4-((1-(4-((2,4-dioxotetrahydropyrimidin-1(2H)-yl)methyl)phenyl)piperidin-4-yl)methyl)piperazin-1-yl)-2-(2-fluoro-3-methyl-4-((6-methylpyridin-2-yl)carbamoyl)phenyl)-9,10-dihydro-4H-benzo[d]pyrazolo[1,5-a][1,3]diazepine-3-carboxamide] the DC50 [2] was 8.05 nM.
With `Cc1c(C(=O)Nc2cn(C)cn2)ccc(-c2nn3c(c2C(N)=O)Nc2ccc(N4CCN(CCc5cc(F)c([C@H]6CCC(=O)NC6=O)c(F)c5)CC4)cc2CC3)c1F` [Example B89, (R)-7-(4-(4-(2,6-dioxopiperidin-3-yl)-3,5-difluorophenethyl)piperazin-1-yl)-2-(2-fluoro-3-methyl-4-((1-methyl-1H-imidazol-4-yl)carbamoyl)phenyl)-9,10-dihydro-4H-benzo[d]pyrazolo[1,5-a][1,3]diazepine-3-carboxamide] the IC50 [1] was over 10000 nM.
In the case of `CC(C)(C)c1ccc(Oc2ccc(-c3nn4c(c3C(N)=O)Nc3ccc(C5CCN(CCC6CCN(c7ccc(N8CCC(=O)NC8=O)cc7)CC6)CC5)cc3CC4)cc2)cc1` [Example A29, 2-(4-(4-(tert-butyl)phenoxy)phenyl)-7-(1-(2-(1-(4-(2,4-dioxotetrahydropyrimidin-1(2H)-yl)phenyl)piperidin-4-yl)ethyl)piperidin-4-yl)-9,10-dihydro-4H-benzo[d]pyrazolo[1,5-a][1,3]diazepine-3-carboxamide], the DC50 [2] is reported as 16.3 nM.
In the case of `NC(=O)c1c(-c2ccc(Oc3ccccc3)cc2)nn2c1Nc1ccc(NCC3CCN(c4cc5c(cc4F)C(=O)N(C4CCC(=O)NC4=O)C5=O)CC3)cc1CC2` (stereo not shown) [Example A16, 7-(((1-(2-(2,6-dioxopiperidin-3-yl)-6-fluoro-1,3-dioxoisoindolin-5-yl)piperidin-4-yl)methyl)amino)-2-(4-phenoxyphenyl)-9,10-dihydro-4H-benzo[d]pyrazolo[1,5-a][1,3]diazepine-3-carboxamide], the DC50 [2] is reported as 9.71 nM.
`NC(=O)c1c(-c2ccc(Oc3ccccc3)cc2)nn2c1Nc1ccc(N3CCN(CCC4CCN(c5ccc(N6CCC(=O)NC6=O)cc5)CC4)CC3)cc1CC2` [Example A22, 7-(4-(2-(1-(4-(2,4-dioxotetrahydropyrimidin-1(2H)-yl)phenyl)piperidin-4-yl)ethyl)piperazin-1-yl)-2-(4-phenoxyphenyl)-9,10-dihydro-4H-benzo[d]pyrazolo[1,5-a][1,3]diazepine-3-carboxamide] showed a DC50 [2] of 1.31 nM.
`Cc1c(C(=O)Nc2cscn2)ccc(-c2nn3c(c2C(N)=O)Nc2ccc(N4CCN(CCc5cc(F)c([C@H]6CCC(=O)NC6=O)c(F)c5)CC4)cc2CC3)c1F` [Example B95, (R)-7-(4-(4-(2,6-dioxopiperidin-3-yl)-3,5-difluorophenethyl)piperazin-1-yl)-2-(2-fluoro-3-methyl-4-(thiazol-4-ylcarbamoyl)phenyl)-9,10-dihydro-4H-benzo[d]pyrazolo[1,5-a] [1,3]diazepine-3-carboxamide] gave a DC50 [2] of 1.7 nM.
